Laboratory results published in US20090247527A1, “SUBSTITUTED GAMMA LACTAMS AS THERAPEUTIC AGENTS” (ALLERGAN, INC., priority 2008, published 2009).
“Also recorded” adds a separate entry of the source.

System: lashes and adjacent hairs of patients having glaucoma
Assay: Observation of lashes and adjacent hairs in glaucoma patients treated with bimatoprost in one eye
Assay type: in vivo, human
Details: glaucoma patients treated unilaterally; gross inspection and slit lamp biomicroscope
Excerpt: In the course of treating patients having glaucoma, treatment may only be appropriate in one eye. […] The lash appearance on the lids of the treated eyes would have appeared quite attractive if it represented a bilateral phenomenon. As a result of its asymmetric nature, the long lashes on one side could be construed as disturbing from a cosmetic standpoint. A systemic examination was preformed as a result of the asymmetric phenomenon. It soon became apparent that this altered appearance was not an isolated finding. […] Definite differences could be identified to varying degrees in the lashes and adjacent hairs of all patients who were taking the drug on a unilateral basis for longer than 6 months.
The changes in the lashes were apparent on gross inspection in several patients once attention was focused on the issue. In those with light colored hair and lashes, the differences were only seen easily with the aid of the high magnification and lighting capabilities of the slit lamp biomicroscope. In the course of glaucoma follow-up examination, attention is generally immediately focused on the eye itself. As a result of the high power magnification needed only one eye is seen at a time and the eye is seen at a high enough power that the lashes are not in focus. […]

CCNC(=O)CCC/C=C\C[C@@H]1[C@@H](/C=C/[C@@H](O)CCc2ccccc2)[C@H](O)C[C@@H]1O [bimatoprost]
lash / hair growth in treated eye versus non-treated eye: longer, thicker, and fuller in the treated eye than in the non-treated eye; also recorded: hair growth is stimulated
